ChEMBL document CHEMBL3885881, “DrugMatrix”

Species: Rattus norvegicus
Assay: DrugMatrix - Regimen: Daily Repeat
Format: toxicity, organism-based, Sprague-Dawley
Parameters: regimen Daily Repeat, gender Male, age 6-8 weeks
Conditions: in vivo, po, route oral GAVAGE; for BASOPHIL / EOSINOPHIL / ERYTHROCYTE COUNT / HEMATOCRIT / LEUKOCYTE COUNT / LYMPHOCYTE / MEAN CORPUSCULAR HEMOGLOBIN / MEAN CORPUSCULAR HEMOGLOBIN CONCENTRATION / MEAN CORPUSCULAR VOLUME / MONOCYTE / NEUTROPHIL / PLATELET COUNT / ABSOLUTE BASOPHIL / ABSOLUTE EOSINOPHIL / ABSOLUTE LYMPHOCYTE / ABSOLUTE MONOCYTE / ABSOLUTE SEGMENTED NEUTROPHIL / HEMOGLOBIN / NUCLEATED RED BLOOD CELLS: tissue Blood; for ALANINE AMINOTRANSFERASE / ALBUMIN / ALKALINE PHOSPHATASE / ASPARTATE AMINOTRANSFERASE / BLOOD UREA NITROGEN / CHLORIDE / CHOLESTEROL / CREATINE PHOSPHOKINASE / CREATININE / GLUCOSE / PHOSPHORUS / POTASSIUM / SODIUM / TOTAL BILIRUBIN / TOTAL PROTEIN / CARBON DIOXIDE / LACTATE DEHYDROGENASE / LIPASE / URIC ACID: tissue Plasma
[1] = 0 mg/kg, 72 h, dose level Control, time 3 day, vehicle .5 % CMC
[2] = 0 mg/kg, 120 h, dose level Control, time 5 day, vehicle .5 % CMC
[3] = 3 mg/kg, 72 h, dose level Low, time 3 day, vehicle .5 % CMC
[4] = 3 mg/kg, 120 h, dose level Low, time 5 day, vehicle .5 % CMC
[5] = 2 mg/kg, 72 h, dose level Low, time 3 day, […]
[6] = 2 mg/kg, 120 h, dose level Low, time 5 day, […]

NCCCC(O)(P(=O)(O)O)P(=O)(O)O [ALENDRONIC ACID]
BASOPHIL [1]: 0% | EOSINOPHIL [1]: 0% | ERYTHROCYTE COUNT [1]: 6.19 x10E6/uL | HEMATOCRIT [1]: 36.94% | LEUKOCYTE COUNT [1]: 11.54 x10E3/uL | LYMPHOCYTE [1]: 84.8% | MEAN CORPUSCULAR HEMOGLOBIN [1]: 23.58 pg | MEAN CORPUSCULAR HEMOGLOBIN CONCENTRATION [1]: 39.44 G/DL | MEAN CORPUSCULAR VOLUME [1]: 59.76 fL | MONOCYTE [1]: 1.4% | NEUTROPHIL [1]: 13.8% | PLATELET COUNT [1]: 1068.8 x10E3/uL | ALANINE AMINOTRANSFERASE [1]: 38.17 u/L | ALBUMIN [1]: 3.88 G/DL | ALKALINE PHOSPHATASE [1]: 391.33 u/L | ASPARTATE AMINOTRANSFERASE [1]: 69.83 u/L | BLOOD UREA NITROGEN [1]: 15 mg/dL | CHLORIDE [1]: 104.17 MEQ/L | CHOLESTEROL [1]: 72.17 mg/dL | CREATINE PHOSPHOKINASE [1]: 174.33 u/L | CREATININE [1]: 0.58 mg/dL | GLUCOSE [1]: 192.67 mg/dL | PHOSPHORUS [1]: 10.52 mg/dL | POTASSIUM [1]: 6.8 MEQ/L | SODIUM [1]: 149.67 MEQ/L | TOTAL BILIRUBIN [1]: 0.78 mg/dL | TOTAL PROTEIN [1]: 6.28 G/DL | BASOPHIL [2]: 0% | EOSINOPHIL [2]: 0.17% | ERYTHROCYTE COUNT [2]: 6.72 x10E6/uL | HEMATOCRIT [2]: 40.02% | LEUKOCYTE COUNT [2]: 9.5 x10E3/uL | LYMPHOCYTE [2]: 87.17% | MEAN CORPUSCULAR HEMOGLOBIN [2]: 23.57 pg | MEAN CORPUSCULAR HEMOGLOBIN CONCENTRATION [2]: 39.62 G/DL | MEAN CORPUSCULAR VOLUME [2]: 59.55 fL | MONOCYTE [2]: 1.67% | NEUTROPHIL [2]: 11% | PLATELET COUNT [2]: 1053.67 x10E3/uL | ALANINE AMINOTRANSFERASE [2]: 26.33 u/L | ALBUMIN [2]: 4.02 G/DL | ALKALINE PHOSPHATASE [2]: 316.67 u/L | ASPARTATE AMINOTRANSFERASE [2]: 61.33 u/L | BLOOD UREA NITROGEN [2]: 18.67 mg/dL | CHLORIDE [2]: 108 MEQ/L | CHOLESTEROL [2]: 65.17 mg/dL | CREATINE PHOSPHOKINASE [2]: 161.17 u/L | CREATININE [2]: 0.75 mg/dL | GLUCOSE [2]: 177.33 mg/dL | PHOSPHORUS [2]: 9.72 mg/dL | POTASSIUM [2]: 6.18 MEQ/L | SODIUM [2]: 150.5 MEQ/L | TOTAL BILIRUBIN [2]: 0.68 mg/dL | TOTAL PROTEIN [2]: 6.55 G/DL | BASOPHIL [3]: 0% | EOSINOPHIL [3]: 0% | ERYTHROCYTE COUNT [3]: 5.67 x10E6/uL | HEMATOCRIT [3]: 34.63% | LEUKOCYTE COUNT [3]: 9.73 x10E3/uL | LYMPHOCYTE [3]: 86.33% | MEAN CORPUSCULAR HEMOGLOBIN [3]: 24.23 pg | MEAN CORPUSCULAR HEMOGLOBIN CONCENTRATION [3]: 39.67 G/DL | MEAN CORPUSCULAR VOLUME [3]: 61.13 fL | MONOCYTE [3]: 1.33% | NEUTROPHIL [3]: 12.33% | PLATELET COUNT [3]: 1035.67 x10E3/uL | ALANINE AMINOTRANSFERASE [3]: 34 u/L | ALBUMIN [3]: 3.77 G/DL | ALKALINE PHOSPHATASE [3]: 322.33 u/L | ASPARTATE AMINOTRANSFERASE [3]: 69 u/L | BLOOD UREA NITROGEN [3]: 16 mg/dL | CHLORIDE [3]: 105.67 MEQ/L | CHOLESTEROL [3]: 63 mg/dL | CREATINE PHOSPHOKINASE [3]: 139.33 u/L | CREATININE [3]: 0.6 mg/dL | GLUCOSE [3]: 171 mg/dL | PHOSPHORUS [3]: 10.3 mg/dL | POTASSIUM [3]: 6.6 MEQ/L | SODIUM [3]: 150 MEQ/L | TOTAL BILIRUBIN [3]: 0.57 mg/dL | TOTAL PROTEIN [3]: 5.97 G/DL | BASOPHIL [4]: 0% | EOSINOPHIL [4]: 0.67% | ERYTHROCYTE COUNT [4]: 6.7 x10E6/uL | HEMATOCRIT [4]: 40.67% | LEUKOCYTE COUNT [4]: 10.57 x10E3/uL | LYMPHOCYTE [4]: 75% | MEAN CORPUSCULAR HEMOGLOBIN [4]: 24.1 pg | MEAN CORPUSCULAR HEMOGLOBIN CONCENTRATION [4]: 39.7 G/DL | MEAN CORPUSCULAR VOLUME [4]: 60.77 fL | MONOCYTE [4]: 3% | NEUTROPHIL [4]: 21.33% | PLATELET COUNT [4]: 904.33 x10E3/uL | ALANINE AMINOTRANSFERASE [4]: 30.67 u/L | ALBUMIN [4]: 4.1 G/DL | ALKALINE PHOSPHATASE [4]: 352.33 u/L | ASPARTATE AMINOTRANSFERASE [4]: 64 u/L | BLOOD UREA NITROGEN [4]: 14.67 mg/dL | CHLORIDE [4]: 106 MEQ/L | CHOLESTEROL [4]: 64.33 mg/dL | CREATINE PHOSPHOKINASE [4]: 130.33 u/L | CREATININE [4]: 0.77 mg/dL | GLUCOSE [4]: 191 mg/dL | PHOSPHORUS [4]: 10.83 mg/dL | POTASSIUM [4]: 6.4 MEQ/L | SODIUM [4]: 150.67 MEQ/L | TOTAL BILIRUBIN [4]: 0.83 mg/dL | TOTAL PROTEIN [4]: 6.73 G/DL

Cc1nnc2n1-c1ccc(Cl)cc1C(c1ccccc1)=NC2 [ALPRAZOLAM]
ABSOLUTE BASOPHIL [5]: 0 CELLS/uL | ABSOLUTE EOSINOPHIL [5]: 40.33 CELLS/uL | ABSOLUTE LYMPHOCYTE [5]: 13483.67 CELLS/uL | ABSOLUTE MONOCYTE [5]: 168.67 CELLS/uL | ABSOLUTE SEGMENTED NEUTROPHIL [5]: 1074 CELLS/uL | BASOPHIL [5]: 0% | EOSINOPHIL [5]: 0.33% | ERYTHROCYTE COUNT [5]: 5.44 x10E6/uL | HEMATOCRIT [5]: 34.8% | HEMOGLOBIN [5]: 13.4 G/DL | LEUKOCYTE COUNT [5]: 14.77 x10E3/uL | LYMPHOCYTE [5]: 91% | MEAN CORPUSCULAR HEMOGLOBIN [5]: 24.7 pg | MEAN CORPUSCULAR HEMOGLOBIN CONCENTRATION [5]: 38.5 G/DL | MEAN CORPUSCULAR VOLUME [5]: 64.17 fL | MONOCYTE [5]: 1.33% | NEUTROPHIL [5]: 7.33% | NUCLEATED RED BLOOD CELLS [5]: 0 /100WBC | PLATELET COUNT [5]: 1211 x10E3/uL | ALANINE AMINOTRANSFERASE [5]: 78.67 u/L | ALBUMIN [5]: 4.13 G/DL | ALKALINE PHOSPHATASE [5]: 386.33 u/L | ASPARTATE AMINOTRANSFERASE [5]: 99 u/L | BLOOD UREA NITROGEN [5]: 15 mg/dL | CARBON DIOXIDE [5]: 27 mmol/L | CHLORIDE [5]: 99 MEQ/L | CHOLESTEROL [5]: 68.67 mg/dL | CREATINE PHOSPHOKINASE [5]: 276 u/L | CREATININE [5]: 0.2 mg/dL | GLUCOSE [5]: 160.33 mg/dL | LACTATE DEHYDROGENASE [5]: 401.67 u/L | LIPASE [5]: 10.33 u/L | PHOSPHORUS [5]: 13.67 mg/dL | POTASSIUM [5]: 7.37 MEQ/L | SODIUM [5]: 142.63 MEQ/L | TOTAL BILIRUBIN [5]: 0.23 mg/dL | TOTAL PROTEIN [5]: 5.63 G/DL | URIC ACID [5]: 1.7 mg/dL | ABSOLUTE BASOPHIL [6]: 0 CELLS/uL | ABSOLUTE EOSINOPHIL [6]: 0 CELLS/uL | ABSOLUTE LYMPHOCYTE [6]: 13775.33 CELLS/uL | ABSOLUTE MONOCYTE [6]: 53.67 CELLS/uL | ABSOLUTE SEGMENTED NEUTROPHIL [6]: 1637.67 CELLS/uL | BASOPHIL [6]: 0% | EOSINOPHIL [6]: 0% | ERYTHROCYTE COUNT [6]: 5.79 x10E6/uL | HEMATOCRIT [6]: 35.1% | HEMOGLOBIN [6]: 13.93 G/DL | LEUKOCYTE COUNT [6]: 15.47 x10E3/uL | LYMPHOCYTE [6]: 89% | MEAN CORPUSCULAR HEMOGLOBIN [6]: 24.07 pg | MEAN CORPUSCULAR HEMOGLOBIN CONCENTRATION [6]: 39.7 G/DL | MEAN CORPUSCULAR VOLUME [6]: 60.57 fL | MONOCYTE [6]: 0.33% | NEUTROPHIL [6]: 10.67% | NUCLEATED RED BLOOD CELLS [6]: 0 /100WBC | PLATELET COUNT [6]: 1214.33 x10E3/uL | ALANINE AMINOTRANSFERASE [6]: 67 u/L | ALBUMIN [6]: 4 G/DL | ALKALINE PHOSPHATASE [6]: 343.67 u/L | ASPARTATE AMINOTRANSFERASE [6]: 109.67 u/L | BLOOD UREA NITROGEN [6]: 15 mg/dL | CARBON DIOXIDE [6]: 27 mmol/L | CHLORIDE [6]: 101 MEQ/L | CHOLESTEROL [6]: 81.67 mg/dL | CREATINE PHOSPHOKINASE [6]: 429 u/L | CREATININE [6]: 0.19 mg/dL | GLUCOSE [6]: 142.33 mg/dL | LACTATE DEHYDROGENASE [6]: 632 u/L | LIPASE [6]: 10.67 u/L | PHOSPHORUS [6]: 11.1 mg/dL | POTASSIUM [6]: 5.98 MEQ/L | SODIUM [6]: 144.97 MEQ/L | TOTAL BILIRUBIN [6]: 0.13 mg/dL | TOTAL PROTEIN [6]: 5.63 G/DL | URIC ACID [6]: 1.63 mg/dL
